As usually defined, the EC50 is the concentration at which the effect is half-maximal.

The target of assay [1] is T1, mouse kappa opioid receptor (mKOR) (Mus musculus, UniProt P33534).
T1 construct: Stimulation of Endogenous Mouse Kappa-Opioid Receptor in R1.G1 Cells; host or cells: R1.G1 mouse thymoma cells
Nature of the assay: cell-based. The note with it: for Emax: read-out: mKOR Efficacy(%).

The target in assay [2] is T2, human kappa opioid receptor (hKOR) (Homo sapiens, UniProt P41145).
T2 construct: expressed in transfected cells; host or cells: HEK-293 cells, transient transfection with Fugene6
T2 sequence (P41145 whole entry): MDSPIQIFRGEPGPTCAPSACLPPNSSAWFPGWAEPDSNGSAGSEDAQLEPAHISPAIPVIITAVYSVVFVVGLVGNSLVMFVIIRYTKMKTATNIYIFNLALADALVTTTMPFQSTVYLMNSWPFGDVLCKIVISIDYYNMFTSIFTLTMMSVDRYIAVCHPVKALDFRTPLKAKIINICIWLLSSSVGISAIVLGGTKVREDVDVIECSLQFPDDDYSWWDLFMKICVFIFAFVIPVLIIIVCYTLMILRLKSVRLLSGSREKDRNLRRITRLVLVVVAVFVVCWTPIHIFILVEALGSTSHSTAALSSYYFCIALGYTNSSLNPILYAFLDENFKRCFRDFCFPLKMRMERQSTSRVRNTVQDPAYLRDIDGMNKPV
Nature of the assay: cell-based. The note with it: for Emax: HEK293, read-out: hKOR Efficacy(%).

Square brackets hold non-standard residues; d marks the D form. Side chains are listed from the residue outwards. Peptide text beside a SMILES is read from it. * marks the point of attachment. Piperidin1yl(4-NH2,4-COOH) = NC1(C(=O)O)CCN(*)CC1; Homopiperazine(4-amidino) = N=C(N)N1CCCN(*)CC1; d(hArg) = N=C(N)NCCCC[C@@H](N)C(=O)O; dAgb = N=C(N)NCC[C@@H](N)C(=O)O; Homopiperazinyl = C1CNCCN(*)C1; dAgp = N=C(N)NC[C@@H](N)C(=O)O; dNle = CCCC[C@@H](N)C(=O)O; Api = NC1(C(=O)O)CCNCC1

T1 sequence (P33534 whole entry): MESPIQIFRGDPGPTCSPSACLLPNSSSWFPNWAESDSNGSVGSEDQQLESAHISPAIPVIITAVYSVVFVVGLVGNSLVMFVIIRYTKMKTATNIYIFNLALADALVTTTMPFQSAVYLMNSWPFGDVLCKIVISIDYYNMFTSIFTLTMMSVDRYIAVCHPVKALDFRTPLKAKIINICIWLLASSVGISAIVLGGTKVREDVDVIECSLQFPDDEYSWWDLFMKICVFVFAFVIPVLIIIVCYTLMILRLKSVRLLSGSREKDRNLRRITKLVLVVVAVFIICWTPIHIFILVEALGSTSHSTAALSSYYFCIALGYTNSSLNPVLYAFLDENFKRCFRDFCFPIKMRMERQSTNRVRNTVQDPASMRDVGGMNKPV

On to `CNCCCC[C@@H](NC(=O)[C@@H](CC(C)C)NC(=O)[C@@H](Cc1ccccc1)NC(=O)[C@H](N)Cc1ccccc1)C(=O)N1CCCN(C(=N)N)CC1` [Compound (1), D-Phe-D-Phe-D-Leu-(ε-Me)D-Lys-[4-amidinohomopiperazine amide]], for which, in assay [1], a half-maximal response (EC50) required 43 pM and the Emax turned out to be 103%. Moreover, in assay [2], the midpoint of the response, the EC50, lay at 150 pM and the Emax worked out at 97%.

As for `CNCCCC[C@@H](NC(=O)[C@@H](CC(C)C)NC(=O)[C@@H](Cc1ccccc1)NC(=O)[C@H](N)Cc1ccccc1)C(=O)N1CCC(N)(C(=O)O)CC1` [Compound (3), D-Phe-D-Phe-D-Leu-(ε-Me)D-Lys-[ω(4-aminopiperidine-4-carboxylic acid)]-OH], in assay [1], the EC50 amounted to 52 pM and the Emax worked out at 96%. Besides, in assay [2], the EC50 came out at 160 pM and the Emax was determined as 100%.

For the compound `CNCCCC[C@@H](NC(=O)[C@@H](CC(C)C)NC(=O)[C@@H](Cc1ccccc1)NC(=O)[C@H](N)Cc1ccccc1)C(=O)N1CCC(N2CCC[C@H]2C(=O)O)CC1` [Compound (6), D-Phe-D-Phe-D-Leu-(ε-Me)D-Lys-[N-(4-piperidinyl)-L-proline]-OH], in assay [1], a half-maximal response (EC50) required 36 pM and the Emax was 94%. In addition, in assay [2], a half-maximal response (EC50) required 130 pM and the Emax was 100%.

Regarding `CC(C)C[C@@H](NC(=O)[C@@H](Cc1ccccc1)NC(=O)[C@H](N)Cc1ccccc1)C(=O)N[C@H](CCCNC(=N)N)C(=O)N1CCCNCC1` [Compound (7), D-Phe-D-Phe-D-Leu-D-Arg-[homopiperazine amide]] (H-[dF][dF][dL][dR]-Homopiperazinyl), in assay [1], it took 12 pM to reach a half-maximal effect (EC50) and the Emax came to 98%. Further, in assay [2], a half-maximal effect (EC50) was put at 110 pM and the Emax stood at 100%.

As to `CC(C)C[C@@H](NC(=O)[C@@H](Cc1ccccc1)NC(=O)[C@H](N)Cc1ccccc1)C(=O)N[C@H](CCCCNC(=N)N)C(=O)N1CCC(N)(C(=O)O)CC1` [Compound (8), D-Phe-D-Phe-D-Leu-D-Har-[ω(4-aminopiperidine-4-carboxylic acid)]-OH] (H-[dF][dF][dL][d(hArg)]-{Piperidin1yl(4-NH2,4-COOH)}), in assay [1], the midpoint of the response, the EC50, lay at 43 pM and the Emax came out at 90%. In addition, in assay [2], the EC50 was found to be 120 pM and the Emax came out at 96%.

For the compound `CC(C)C[C@@H](NC(=O)[C@@H](Cc1ccccc1)NC(=O)[C@H](N)Cc1ccccc1)C(=O)N[C@H](CCCCNC(C)C)C(=O)N1CCC(N)(C(=O)O)CC1` [Compound (9), D-Phe-D-Phe-D-Leu-(ε-iPr)D-Lys-[ω(4-aminopiperidine-4-carboxylic acid)]-OH], in assay [1], the response was half-maximal at 78 pM (EC50) and the Emax was found to be 96%. In assay [2], the EC50 came out at 170 pM and the Emax is 90%.

On to `CC(C)C[C@@H](NC(=O)[C@@H](Cc1ccccc1)NC(=O)[C@H](N)Cc1ccccc1)C(=O)N[C@H](CNC(=N)N)C(=O)N1CCC(N)(C(=O)O)CC1` [Compound (10), D-Phe-D-Phe-D-Leu-(β-amidino)D-Dap-[ω(4-aminopiperidine-4-carboxylic acid)]-OH] (H-[dF][dF][dL][dAgp]-{Piperidin1yl(4-NH2,4-COOH)}), for which the EC50 in assay [1] turned out to be 826 pM; in assay [2], 300 pM. Moreover, the values for the Emax in assay [1] and in assay [2] were 90% and 86%, respectively.

As for `CCCC[C@@H](NC(=O)[C@@H](Cc1ccccc1)NC(=O)[C@H](N)Cc1ccccc1)C(=O)N[C@H](CNC(=N)N)C(=O)N1CCCN(C(=N)N)CC1` [Compound (19), D-Phe-D-Phe-D-Nle-(β-amidino)D-Dap-[4-amidinohomopiperazine amide]] (H-[dF][dF][dNle][dAgp]-{Homopiperazine(4-amidino)}), in assay [1], the midpoint of the response, the EC50, lay at 2150 pM and the Emax was found to be 99%.

Regarding `CCCC[C@@H](NC(=O)[C@@H](Cc1ccccc1)NC(=O)[C@H](N)Cc1ccccc1)C(=O)N[C@H](CCCNC(=N)N)C(=O)N1CCC[C@@H]1C(=O)O` [Compound (40), D-Phe-D-Phe-D-Nle-D-Arg-D-Pro-OH] (H-[dF][dF][dNle][dR][dP]-OH), in assay [1], the midpoint of the response, the EC50, lay at 9050 pM and the Emax came to 88%.

Take `CC(C)C[C@@H](NC(=O)[C@@H](Cc1ccccc1)NC(=O)[C@H](N)Cc1ccccc1)C(=O)N[C@H](CCCN)C(=O)N[C@H]1CN[C@H](C(=O)O)C1` [Compound (41), D-Phe-D-Phe-D-Leu-D-Orn-[(2S,4R)-4-amino-pyrrolidine-2-carboxylic acid]-OH]: in assay [1], the half-maximal effective concentration (EC50) is 50600 pM and the Emax worked out at 87%.

Regarding `CC(C)C[C@@H](NC(=O)[C@@H](Cc1ccccc1)NC(=O)[C@H](N)Cc1ccccc1)C(=O)N[C@H](CCCN)C(=O)N[C@@H]1CN[C@H](C(=O)O)C1` [Compound (42), D-Phe-D-Phe-D-Leu-D-Orn-[(2S,45)-4-amino-pyrrolidine-2-carboxylic acid]-OH], in assay [1], the EC50 is 3000 pM and the Emax was 96%.

As for `CC(C)C[C@@H](NC(=O)[C@@H](Cc1ccccc1)NC(=O)[C@H](N)Cc1ccccc1)C(=O)N[C@H](CCCN)C(=O)NC1CCN(CC(N)=O)CC1` [Compound (51), D-Phe-D-Phe-D-Leu-D-Orn-[4-amino-1-carboxymethyl-piperidine]-NH2], in assay [1], the EC50 worked out at 1970 pM and the Emax is 93%.

Turning to `CC(C)C[C@@H](NC(=O)[C@@H](Cc1ccccc1)NC(=O)[C@H](N)Cc1ccccc1)C(=O)N[C@H](CCCN)C(=O)NCCCC[C@@H](NC(=O)[C@H](N)CCCN)C(=O)O` [Compound (82)], in assay [1], the EC50 is 120 pM.

Consider `CC(C)C[C@@H](N)C(=O)N[C@H](CCCN)C(=O)N[C@H](CCCCNC(=O)[C@@H](CCCN)NC(=O)[C@@H](CC(C)C)NC(=O)[C@@H](Cc1ccccc1)NC(=O)[C@H](N)Cc1ccccc1)C(=O)O` [Compound (83)], for which, in assay [1], a half-maximal effect (EC50) was put at 50 pM and the Emax was 91%.

On to `CC(C)C[C@@H](NC(=O)[C@H](N)Cc1ccccc1)C(=O)N[C@H](CCCN)C(=O)N[C@H](CCCCNC(=O)[C@@H](CCCN)NC(=O)[C@@H](CC(C)C)NC(=O)[C@@H](Cc1ccccc1)NC(=O)[C@H](N)Cc1ccccc1)C(=O)O` [Compound (84)], for which, in assay [1], a half-maximal effect (EC50) was put at 340 pM and the Emax was 85%.

For the compound `CC(C)C[C@@H](NC(=O)[C@@H](Cc1ccccc1)NC(=O)[C@H](N)Cc1ccccc1)C(=O)N[C@H](CCCNC(C)C)C(=O)NC1(C(=O)O)CCN(C(=O)[C@@H](CCCNC(C)C)NC(=O)[C@@H](CC(C)C)NC(=O)[C@@H](Cc2ccccc2)NC(=O)[C@H](N)Cc2ccccc2)CC1` [Compound (86), 1N,4N-bis-[D-Phe-D-Phe-D-Leu-(iPr)D-Orn]-4-amino-4-carboxylic-piperidine], in assay [1], the EC50 amounted to 56700 pM and the Emax came out at 77%.

Turning to `CC(C)C[C@@H](NC(=O)[C@@H](Cc1ccccc1)NC(=O)[C@H](N)Cc1ccccc1)C(=O)N[C@H](CCNC(=N)N)C(=O)NC1(C(=O)O)CCN(C(=O)[C@@H](CCNC(=N)N)NC(=O)[C@@H](CC(C)C)NC(=O)[C@@H](Cc2ccccc2)NC(=O)[C@H](N)Cc2ccccc2)CC1` [Compound (88), 1N,4N-bis-(D-Phe-D-Phe-D-Leu-D-Nar)-4-amino-4-carboxylic piperidine] (H-[dF][dF][dL][dAgb][Api]([dAgb-dL-dF-dF])-OH), in assay [1], a half-maximal response (EC50) required 13800 pM and the Emax was found to be 76%.

The record behind these values is patent publication US7713937B2, “Synthetic peptide amides and dimeric forms thereof” (Cara Therapeutics, Inc., priority 2006, dated 2010).
